Measurements: patent US20070299114A1, “Biaryl Derivatives” (Shionogi & Co., Ltd., priority 2004, published 2007)

What was measured:
Human lymphocyte = experiment: suppression of IgE antibody production in human lymphocyte stimulated with anti-human CD40 antibody and IL-4; type: cell-based; settings: 216 h; IgE antibody production by human lymphocyte, anti-human CD40 antibody + IL-4, cultured for 9 days, ELISA
Description: Effect of Suppressing Antibody Production Using Human Lymphocyte
1) Human Peripheral Blood
Human peripheral blood was collected with a plastic syringe containing heparin (final concentration 1.5%) from a vein of an adult healthy person, and subjected to collection of lymphocyte immediately after blood collection.
To the RPMI medium (Sigma) were added 10% of fetal bovine serum, (HyClone Lab.) which had been immobilized at 56° C. for 30 minutes, penicillin (100 units/ml) and streptomycin (100 μg/ml) (Invitrogen), which was used.
The present compound was dissolved in dimethyl sulfoxide (Nakalai Tesque) to 2 mg/ml and, thereafter, the solution was diluted with a medium to a final concentration of 0.01 pg/ml to 10 μg/ml.
Human peripheral blood was mixed with an equal amount of PBS-10 mM EDTA, 10 ml of this was overlaid on a tube containing 3 ml of Ficoll-Paque Plus (Pharmacia Biotech), followed by centrifugation at room temperature and 300×g for 30 minutes to obtain a lymphocyte layer. The collected cell suspension was centrifugation-washed with a sterilized Hanks's balanced salt solution (Invitrogen), passed through a nylon mesh, and centrifugation-washed with a medium, which was used in an experiment as human lymphocyte.
5) Inducement of IgE Antibody Production Due to B cell Stimulation
Human lymphocyte was seeded on a 96-well culturing plate (Sumitomo Bakelite) to 2×10^5 cells per well, and the compound, an anti-human CD40 antibody (Pharmingen, 2 μg/ml), and human recombinant interleukin-4 (IL-4) (PEPROTECH, 0.1 μg/ml) were added, followed by culturing at 37° C. under the presence of 5% CO2 (0.2 ml/well). After cultured for 9 days, an amount of an antibody produced in the supernatant was quantitated by a specific ELISA method.
6) Quantitation of IgE Antibody
For quantitating IgE, a commercially available kit, MESACUP IgE Test (Medical & Biological Laboratories Co., Ltd.) was used. An experimental method was according to the manual, an experiment was performed duplicately, and an average was obtained.

[1] = molecular target: T1, dihydrooroate dehydrogenase (Homo sapiens, UniProt Q02127); experiment: dihydroorotate dehydrogenase inhibition, U-937 mitochondrial/microsomal fraction, DCIP absorbance at 620 nm; type: biochemical; settings: DHODH of human U-937 cell mitochondrial/microsomal fraction; 37° C., 120 minutes
T1 construct: ultracentrifugation at 4° C. and 120,000×g for 60 minutes afforded a mitochondrial/microsomal fraction; endogenous in cells; host or cells: U-937 (human histiocytic lymphoma cell line), mitochondrial/microsomal fraction
T1 sequence (Q02127 whole entry): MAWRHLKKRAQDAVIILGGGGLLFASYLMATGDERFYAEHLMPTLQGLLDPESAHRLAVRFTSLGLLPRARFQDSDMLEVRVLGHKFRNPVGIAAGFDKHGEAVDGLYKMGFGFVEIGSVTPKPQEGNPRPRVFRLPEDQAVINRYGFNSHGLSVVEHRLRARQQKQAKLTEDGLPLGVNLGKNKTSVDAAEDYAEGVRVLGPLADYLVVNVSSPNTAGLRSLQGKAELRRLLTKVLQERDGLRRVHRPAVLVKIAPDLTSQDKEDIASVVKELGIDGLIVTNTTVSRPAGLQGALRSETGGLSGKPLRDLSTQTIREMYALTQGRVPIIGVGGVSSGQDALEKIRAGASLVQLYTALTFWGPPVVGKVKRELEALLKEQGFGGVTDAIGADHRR
Description: Method of Testing dihydrooroate dehydrogenase Inhibition
Human U-937 cell (human histiocytic lymphoma cell line) was sonicated in a homogenizing buffer (20 mM Tris-HC1, pH 7.4, containing 2 mM EDTA and protease inhibitor cocktail), and this was centrifuged at 4° C. and 1,200×g for 15 minutes to remove cell debris. Further, ultracentrifugation at 4° C. and 120,000×g for 60 minutes afforded a mitochondrial/microsomal fraction. The resulting fraction was quantitated for a protein, and prepared to 10 mg/ml, which was freezing-stored in a −40° C. in a refrigerator until measurement. To 150 μl of the reaction solution (50 mM Tris-HC1, pH 7.4, containing 0.1% Triton X-100, 1 mM KCN, 100 μM coenzyme Q10, 200 μM DCIP), were added 10 μl of a dilution series of the compound and 0.2 mg of a mitochondrial/microsomal fraction, followed by pre-incubation at 37° C. for 30 minutes. Then, 20 μl of a 5 mM DHO solution (final concentration […]), which is a substrate, was added, this was incubated at 37° C. for 120 minutes, and an absorbance at a measurement wavelength of 620 nm was measured. A rate of suppression of a compound at each concentration relative to a change in an absorbance due to the enzyme reaction was obtained, and a concentration indicating 50% inhibition (IC50 value) was calculated to assess the inhibition activity of the compound.

anti-OVA IgE antibody = experiment: suppression of IgE antibody production to anti-ovalbumin (OVA) in immunized mice, PCA titer; type: in vivo; settings: anti-OVA IgE antibody value (PCA titer, Log2 of maximum serum dilution rate) in BALB/c mice
Description: Effect of Suppression of IgE Antibody Production to Anti-Ovalbumin (OVA)
BALB/c mice (female, 8 to 10 week old) purchased from Japan Charles River (Kanagawa) and Wistar rats (female, 8 to 10 week old) purchased from Japan SLC (Sizuoka) were used.
BALB/c mice were immunized by intraperitoneally injecting 0.2 ml of a solution obtained by suspending 2 μg of ovalbumin (OVA) and an aluminum hydroxide gel (1 mg) in a brine. After ten days, blood was taken from a heart, the serum was separated, and an IgE antibody value was measured.
[…] Administration was performed from immunization date to the day before blood collection for consecutive 10 days.
4) Measurement of Anti-OVA IgE Antibody Value (PCA Titer)
The resulting mouse serum was prepared into a 2-fold dilution series with a brine, and each 50 μl of this was subcutaneously injected into a back of a pre-shaved Wistar rat. After 24 hours, 0.5 ml of a brine containing 1 mg of OVA and 5 mg of an Evans Blue dye was intravenously injected to induce a passive skin anaphylactic reaction (PCA).

[2] = dose 10 mg/kg orally for consecutive 10 days
[3] = dose 40 mg/kg orally for consecutive 10 days

IC50 (Human lymphocyte) [ng/mL] | Compound | PCA (anti-OVA IgE antibody; [2]) | also measured
 | C/C(=C\c1ccc(-c2ccc3[nH]ccc3c2)cc1)C(=O)O [Compound 1] |  | melting point: 195 to 198 °C
 | C/C(=C\c1ccc(-c2ccc3[nH]ccc3c2)cc1)C(=O)NC1CCCC1 [Compound 4] |  | melting point: 154 to 157 °C
 | C/C(=C\c1cc(F)c(-c2ccc(NC(C)C)cc2)cc1F)C(=O)NCC(=O)O [Compound 21] |  | melting point: 156 to 158 °C
 | COc1cc(-c2ccc(NC(C)C)cc2F)c(OC)cc1/C=C(\C)C(=O)O [Compound 22] |  | melting point: 213 to 216 °C
0.5 | C/C(=C\c1cc(C)c(-c2ccc(NC(C)C)cc2F)cc1C)C(=O)NC(C)C [Compound 122] | 4.7 | IC50 [1]: 10.5 nM
0.6 | Cc1cc(-c2ccc(NC(C)C)cc2F)c(C)cc1/C=C(/F)C(=O)NC(C)C [Compound 201] | 5.3 | IC50 [1]: 5.17 nM
75 | C/C(=C\C(=O)NC(C)C)c1cc(C)c(-c2ccc3[nH]ccc3c2)cc1C [Compound 252] |  | IC50 [1]: 13.6 nM; PCA (anti-OVA IgE antibody; [3]): 0<
60 | CCS(=O)(=O)NC(=O)/C(C)=C/c1cc(C)c(-c2ccc(NCc3ccco3)cc2F)cc1C [Compound 347] |  | IC50 [1]: 6.16 nM; PCA (anti-OVA IgE antibody; [3]): 2.0
0.3 | Cc1cc(-c2ccc(NC3CCCC3)cc2)c(C)cc1/C=C(\F)C(=O)NC(C)C [Compound 397] |  | IC50 [1]: 6.84 nM; PCA (anti-OVA IgE antibody; dose 20 mg/kg orally for consecutive 10 days): 0<
0.8 | C/C(=C\c1c(C)c(C)c(-c2ccc(NC3CCCC3)cc2F)c(C)c1C)C(=O)NC1CCCC1 [Compound 459] | 2.7 | 
9.3 | C/C(=C\c1c(C)c(F)c(-c2ccc(NC(C)C)nc2)c(C)c1F)C(=O)NC(C)C [Compound 484] |  | PCA (anti-OVA IgE antibody; [3]): 0<
13.5 | C/C(=C\c1c(C)c(F)c(-c2ccc(NC(C)C)cc2)c(C)c1F)C(=O)O [Compound 486] | 0< | 
9.4 | CC/C(=C\c1c(C)c(F)c(-c2ccc(NC(C)C)cc2)c(C)c1F)C(=O)O [Compound 493] | 4.0 | 
41 | CC/C(=C\c1c(C)c(F)c(-c2ccc(NC(C)C)cc2)c(C)c1F)C(=O)N[C@H](C)C(=O)O [Compound 495] | 4.7 | 
0.9 | COc1c(C)c(-c2ccc(NC(C)C)cc2)c(OC)c(C)c1/C=C(\C)C(=O)O [Compound 526] |  | PCA (anti-OVA IgE antibody; [3]): 2.7
7.2 | COc1c(C)c(-c2ccc(NC3CCCCC3)cc2)c(OC)c(C)c1/C=C(\C)C(=O)O [Compound 559] | 4 | 
8.4 | COc1c(C)c(-c2ccc(NC3CCCCC3)cc2)c(OC)c(C)c1/C=C(\C)C(=O)N[C@H](C)C(=O)O [Compound 562] |  | PCA (anti-OVA IgE antibody; [3]): 0<
6.4 | COc1c(C)c(-c2ccc(NCc3ccc(C)o3)cc2)c(OC)c(C)c1/C=C(\C)C(=O)O [Compound 571] | 1.3 | 
6.6 | CCC/C=C/CNc1ccc(-c2c(C)c(OC)c(/C=C(\C)C(=O)O)c(C)c2OC)cc1 [Compound 573] | 0< | 
4.8 | CC/C=C/CNc1ccc(-c2c(C)c(OC)c(/C=C(\C)C(=O)O)c(C)c2OC)cc1 [Compound 585] | 1.0 | 
